# Results published in paper PMC6720848, “Synthesis of New Quinoline-Piperonal Hybrids as Potential Drugs against Alzheimer’s Disease” (International Journal of Molecular Sciences, 2019).
# Experiments:
# Assay in all cases: biochemical
# [1] = molecular target: T1, EeAChE (AChE from Electrophorus electricus) (Electrophorus electricus, UniProt O42275); assay type: biochemical; conditions: modified Ellman's method, 37 °C, samples 1 to 100 µM, average ± standard deviation of three experiments
# T1 construct: purchased Sigma-Aldrich (São Paulo, Brazil)
# T1 sequence (O42275 24-633): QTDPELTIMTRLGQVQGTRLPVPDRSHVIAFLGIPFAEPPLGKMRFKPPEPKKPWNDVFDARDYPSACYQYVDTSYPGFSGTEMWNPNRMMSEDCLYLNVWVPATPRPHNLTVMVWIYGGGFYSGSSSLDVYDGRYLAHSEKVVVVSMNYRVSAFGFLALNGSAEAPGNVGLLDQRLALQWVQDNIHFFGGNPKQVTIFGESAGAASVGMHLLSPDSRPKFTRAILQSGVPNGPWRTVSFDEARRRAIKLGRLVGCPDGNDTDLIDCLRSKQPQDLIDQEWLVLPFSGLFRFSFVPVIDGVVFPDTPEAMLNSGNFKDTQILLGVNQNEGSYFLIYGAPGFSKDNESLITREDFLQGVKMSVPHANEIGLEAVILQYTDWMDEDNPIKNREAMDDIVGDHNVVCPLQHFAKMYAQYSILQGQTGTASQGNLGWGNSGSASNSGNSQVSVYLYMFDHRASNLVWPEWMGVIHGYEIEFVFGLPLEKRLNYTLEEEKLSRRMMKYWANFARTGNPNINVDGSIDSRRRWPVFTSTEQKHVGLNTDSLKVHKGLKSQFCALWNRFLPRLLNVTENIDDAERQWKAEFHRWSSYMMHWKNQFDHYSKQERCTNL
# Procedure: (§1) In order to determine the anticholinesterase activity, we used Ellman’s method modified for a 96-wells plate. The velocities of substrate hydrolysis by AChE and BChE as function of sample concentration were evaluated for EeAChE and EqBChE. AChE, BChE and Ellman’s reagent (DTNB) were prepared in phosphate buffer (100 mM, pH 7.4). Acetylthiocholine iodide (ATCI), and butyrylthiocholine iodide (BTCI) were prepared in distilled water. Stock samples (100 mM) were prepared in dimethyl sulphoxide (DMSO) and appropriately diluted in distilled water to the desired concentrations immediately before use. All solutions were kept on ice during the experiment. All experiments were performed at 37 ± 1 °C.
# (§2) The mixture was incubated for 10 min. Then, ATCI (0.5 mM) or BTCI (1.0 mM) was added to all wells and the plate was read immediately for 5 min in a spectrophotometer (Spectramax 340PC, Molecular Device®). The spontaneous and sample (100 µM) induced hydrolysis of the substrate were evaluated by replacing enzyme for buffer. […] The solvent (DMSO) was evaluated at the highest concentration (0.2%) used in the experiment. All concentrations refer to final concentrations. The samples were tested in at least 5 concentrations. […] The values of absorbance/min were calculated by the software Softmax Pro 6.4®. Inhibition values were calculated through non-linear regression with the software GraphPadPrism 5 (GraphPad software®, San Diego, CA, USA). […] EeAChE (EC.3.1.1.7), EqBChE (EC3.1.1.8), ATCI, BTCI and DTNB were purchased from Sigma-Aldrich (São Paulo, Brazil).
# [2] = molecular target: T2, EqBChE (butyrylcholinesterase from equine serum) (Equus caballus, UniProt P81908); assay type: biochemical; conditions: modified Ellman's method, 37 °C, samples 1 to 100 µM, average ± standard deviation of three experiments
# T2 construct: butyrylcholinesterase from equine serum (EqBChE); purchased Sigma-Aldrich (São Paulo, Brazil); host or cells: equine serum
# T2 sequence (P81908 whole entry): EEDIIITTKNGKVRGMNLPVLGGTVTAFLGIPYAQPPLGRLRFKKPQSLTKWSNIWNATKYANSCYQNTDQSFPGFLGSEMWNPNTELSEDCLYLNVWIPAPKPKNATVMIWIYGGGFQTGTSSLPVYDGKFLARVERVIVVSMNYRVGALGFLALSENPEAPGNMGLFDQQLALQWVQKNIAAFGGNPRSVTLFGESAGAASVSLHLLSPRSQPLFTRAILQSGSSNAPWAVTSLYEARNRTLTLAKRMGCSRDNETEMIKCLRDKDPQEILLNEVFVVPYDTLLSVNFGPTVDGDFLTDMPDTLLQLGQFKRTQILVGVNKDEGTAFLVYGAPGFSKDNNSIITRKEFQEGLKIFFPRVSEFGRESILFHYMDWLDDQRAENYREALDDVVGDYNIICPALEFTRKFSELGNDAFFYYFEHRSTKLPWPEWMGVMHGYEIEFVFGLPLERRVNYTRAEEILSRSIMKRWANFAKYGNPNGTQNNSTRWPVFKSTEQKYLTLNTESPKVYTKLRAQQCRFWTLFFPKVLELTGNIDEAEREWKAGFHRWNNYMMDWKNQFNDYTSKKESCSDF
# Procedure: as §1, §2
# EeAChE = molecular target: T3, EeAChE (Electrophorus electricus, UniProt O42275); conditions: EeAChE 33 nM, ACh 5 mM, final concentration of the inhibitor 10 mM, 25 °C, triplicate; read-out: AChE inhibition (NMR test)
# T3 construct: purchased Sigma-Aldrich (São Paulo, Brazil)
# T3 sequence (O42275 24-633): as the sequence (O42275 24-633) above
# Procedure: This sample was immediately inserted in the magnet for locking and shimming, allowing for the observation of the first ^1H spectra exactly 5 min after the addition of ACh. The next ^1H spectra were acquired at every 5 min with a single scan over 75 min. For testing the new compound, the same procedure was performed, including the addition of 5 μL of the potential EeAChE inhibitor (final concentration of the inhibitor in the NMR tube = 10 mM) before the addition of ACh. […] The values generated from the integration of the signals of ACh (consumed during the reaction) and Ac (produced during the reaction) are compared between each other and to the values of Ac produced in the presence and in the absence of the inhibitor. This enables the calculation of the percentages of inhibition, as described before [32]. All analyses were performed in triplicate.
SMILES,IC50 [1] [µM],also measured
"CC1(C)CC(=O)c2cc3cc4c(cc3nc2C1)OCO4 [Compound 3, 7,8-Dihydro-7,7-dimethyl-1,3-dioxolo[4,5-b]acridin-9(6h)-one]",51.5 ± 2.47,
"COC(=O)c1cc2cc3c(cc2nc1C)OCO3 [Compound 4, Methyl 6-Methyl-[1,3]dioxolo[4,5-g]quinone-7-carboxilate]",> 100,IC50 EqBChE [2]: not able to inhibit; IC50 EeAChE [1]: not able to inhibit
"O=C(O)c1cc2cc3c(cc2[nH]c1=O)OCO3 [Compound 5, Acid 5,6-Diidro-6-oxo-1,3-dioxolo[4,6g] quiniline-7-carboxilic]",14.2 ± 1.15,
"O=c1[nH]c(=O)c2cc3cc4c(cc3nc2[nH]1)OCO4 [Compound 6, 1,3-Dioxolo [4,5-g] pirimido [4,5-b] quinoline-7,9 (6H,8H)-dione]",32.1 ± 3.53,
"CCOC(=O)c1cc2cc3c(cc2[nH]c1=O)OCO3 [Compound 7, Ethyl 5,6-Dehidro-6-oxo-[1,3] dioxolano [4,5-g] quinoline-7-carboxilate]",62.8 ± 2.02,
"CC1(C)CC(=NNC(=N)N)c2cc3cc4c(cc3nc2C1)OCO4 [Compound 8, Guanylhydrazone of 7,7-Dimethyl-7,8-dihydro-[1,3]dioxolo[4,5-b]acridin-9(6h)-one]",8.5 ± 0.39,IC50 [2]: 15.2 ± 0.75 µM; inhibition at 10000 µM (EeAChE): 73.9 ± 6.26%
